The subject of data set [1] is H1N1 California/07/2009. Briefly: microbe, parasite or virus in culture. Format: cell-based, influenza A virus. Particulars: read-out: EC50 (μM) H1N1 California/07/2009.
In data set [2] the test system is H1N1 California/07/2009. Briefly: microbe, parasite or virus in culture. Format: cell-based, influenza A virus.
In data set [3] the test system is H3N2 Perth/16/2009. Briefly: microbe, parasite or virus in culture. As to conditions: read-out: EC50 (μM) H3N2 Perth/16/2009. It is filed as cell-based, influenza A virus.
A short description of another data set: in vitro. Particulars: dog.
The subject of data set [4] is H3N2 Perth/16/2009. Briefly: microbe, parasite or virus in culture. Format: cell-based, influenza A virus. As to conditions: read-out: EC50 (μM) H3N2 Perth/16/2009. The source holds these as a separate data set.
Setting [5] is: read-out: EC50 (μM) H1N1 California/07/2009.
Setting [6] is: CC50 (μM) H1N1 California/07/2009, Cell cytotoxicity (CC), run with H1N1 California/07/2009.
Where [7] appears, read: CC50 (μM) H3N2 Perth/16/2009, Cell cytotoxicity (CC), run with H3N2 Perth/16/2009.
The mark [8] stands for this setting: CC50, MDCK cells, run with Influenza A H1N1 California/07/2009, Neutral Red.
Setting [9] is: CC50, MDCK cells, run with Influenza A H1N1 California/07/2009, Visual.

“And” between values parts separate entries of the source, which are not always exact repeats. Equal values may be shown once. Read-outs that look alike come from different tables or passages of the source. Bridge positions count the residues as written; N and C are the ends. Square brackets hold non-standard residues; d marks the D form. Peptide text beside a SMILES is read from it. * marks the point of attachment. 5FAM = O=C1OC2(c3ccc(O)cc3Oc3cc(O)ccc32)c2ccc(C(=O)*)cc21; S5 = C=CCCC[C@](C)(N)C(=O)O; Nle = CCCC[C@H](N)C(=O)O; Aib = CC(C)(N)C(=O)O; βAla = NCCC(=O)O

With `CCCC[C@H](NC(C)=O)C(=O)N[C@@H](CC(=O)O)C(=O)N[C@H](C(=O)N[C@@H](CC(N)=O)C(=O)N[C@@]1(C)CCCC=CCCC[C@@](C)(C(=O)N[C@@H](CC(C)C)C(=O)N[C@@H](C)C(=O)N[C@H](C(=O)NC(C)(C)C(=O)N[C@@H](C)C(=O)N[C@@H](CCC(N)=O)C(=O)N[C@@H](C)C(=O)N[C@@H](C)C(N)=O)C(C)C)NC(=O)[C@H](CC(C)C)NC(=O)[C@H](CC(C)C)NC(=O)[C@H]([C@@H](C)O)NC1=O)C(C)C` [SP-7] (Ac-[Nle]DVN[S5]TLL[S5]LAV[Aib]AQAA-NH2; staple 5-9), the EC50 in the data set on H1N1 California/07/2009 [1] was in the range of 10 to 25 µM; with H1N1 California/07/2009 [2] (setting [5]), 10 to 25 µM; in the data set with H3N2 Perth/16/2009 [3], 25 to 50 µM; in the data set with H3N2 Perth/16/2009 [4], 25 to 50 µM. For the same compound, the CC50 in “in vitro” (setting [6]), in the data set “in vitro” (setting [7]), in “in vitro” (setting [8]) and in the data set “in vitro” (setting [9]) was greater than 100 µM each time.

Take `CCCC[C@H](NC(C)=O)C(=O)N[C@@H](CC(=O)O)C(=O)N[C@H](C(=O)N[C@@H](CC(N)=O)C(=O)N[C@@]1(C)CCCC=CCCC[C@@](C)(C(=O)N[C@@H](CC(C)C)C(=O)N[C@@H](CCCCN)C(=O)N[C@H](C(=O)NC(C)(C)C(=O)N[C@@H](C)C(=O)N[C@@H](C)C(N)=O)C(C)C)NC(=O)[C@H](CC(C)C)NC(=O)[C@H](CC(C)C)NC(=O)[C@H]([C@@H](C)O)NC1=O)C(C)C` [SP-2] (Ac-[Nle]DVN[S5]TLL[S5]LKV[Aib]AA-NH2; staple 5-9): the EC50 was greater than 50 µM in the data set with H1N1 California/07/2009 [1]; 51 µM and 32 µM in the data set on H1N1 California/07/2009 [2] (read-out: EC50); greater than 50 µM in the data set on H1N1 California/07/2009 [2] (setting [5]); 25 to 50 µM with H3N2 Perth/16/2009 [3]; 10 to 25 µM with H3N2 Perth/16/2009 [4]. Besides, the CC50 in the data set “in vitro” (setting [6]), in the data set “in vitro” (setting [7]), in “in vitro” (setting [8]) and in the data set “in vitro” (setting [9]) was greater than 100 µM throughout.

With `CC(=O)N[C@@H](Cc1ccccc1)C(=O)N[C@@H](CC(=O)O)C(=O)N[C@H](C(=O)N[C@@H](CC(N)=O)C(=O)N[C@@]1(C)CCCC=CCCC[C@@](C)(C(=O)N[C@@H](CC(C)C)C(=O)N[C@@H](CCCCN)C(=O)N[C@H](C(=O)NC(C)(C)C(=O)N[C@@H](C)C(=O)N[C@@H](CCC(N)=O)C(N)=O)C(C)C)NC(=O)[C@H](CC(C)C)NC(=O)[C@H](CC(C)C)NC(=O)[C@H]([C@@H](C)O)NC1=O)C(C)C` [SP-4] (Ac-FDVN[S5]TLL[S5]LKV[Aib]AQ-NH2; staple 5-9), the EC50 in the data set on H1N1 California/07/2009 [1] is greater than 50 µM; in the data set with H1N1 California/07/2009 [2] (setting [5]), greater than 50 µM; with H3N2 Perth/16/2009 [3], 25 to 50 µM; in the data set with H3N2 Perth/16/2009 [4] it was 25 to 50 µM. In addition, the CC50 in “in vitro” (setting [6]), in the data set “in vitro” (setting [7]), in the data set “in vitro” (setting [8]) and in “in vitro” (setting [9]) was greater than 100 µM throughout.

For the compound `CCCC[C@H](NC(C)=O)C(=O)N[C@@H](CC(=O)O)C(=O)N[C@H](C(=O)N[C@@H](CC(N)=O)C(=O)N[C@@]1(C)CCCC=CCCC[C@@](C)(C(=O)N[C@@H](CC(C)C)C(=O)N[C@@H](C)C(=O)N[C@H](C(=O)NC(C)(C)C(=O)N[C@@H](C)C(=O)N[C@@H](CCC(N)=O)C(=O)N[C@@H](C)C(=O)N[C@H](C)C(N)=O)C(C)C)NC(=O)[C@H](CC(C)C)NC(=O)[C@H](CC(C)C)NC(=O)[C@H]([C@@H](C)O)NC1=O)C(C)C` [SP-16] (Ac-[Nle]DVN[S5]TLL[S5]LAV[Aib]AQA[dA]-NH2; staple 5-9), the EC50 in the data set on H1N1 California/07/2009 [1] lay within 10 to 25 µM; in the data set on H1N1 California/07/2009 [2] (setting [5]), 10 to 25 µM; in the data set on H3N2 Perth/16/2009 [3], 25 to 50 µM; with H3N2 Perth/16/2009 [4] it was 25 to 50 µM. In addition, the CC50 in the data set “in vitro” (setting [6]), in “in vitro” (setting [7]), in the data set “in vitro” (setting [8]) and in “in vitro” (setting [9]) was greater than 100 µM throughout.

`CCCC[C@H](NC(C)=O)C(=O)N[C@@H](CC(=O)O)C(=O)N[C@H](C(=O)N[C@@H](CC(N)=O)C(=O)N[C@@]1(C)CCCC=CCCC[C@@](C)(C(=O)N[C@@H](CC(C)C)C(=O)N[C@@H](C)C(=O)N[C@H](C(=O)NC(C)(C)C(=O)N[C@@H](C)C(=O)N[C@@H](CCC(N)=O)C(=O)N[C@@H](C)C(=O)N[C@H](C)C(=O)O)C(C)C)NC(=O)[C@H](CC(C)C)NC(=O)[C@H](CC(C)C)NC(=O)[C@H]([C@@H](C)O)NC1=O)C(C)C` [SP-17] (Ac-[Nle]DVN[S5]TLL[S5]LAV[Aib]AQA[dA]-OH; staple 5-9): the EC50 in the data set on H1N1 California/07/2009 [1] fell in the range of 25 to 50 µM; in the data set on H1N1 California/07/2009 [2] (setting [5]), 25 to 50 µM; in the data set with H3N2 Perth/16/2009 [3] it was 10 to 25 µM; with H3N2 Perth/16/2009 [4], 10 to 25 µM. In addition, the CC50 in “in vitro” (setting [6]), in the data set “in vitro” (setting [7]), in “in vitro” (setting [8]) and in “in vitro” (setting [9]) was greater than 100 µM each time.

`CCCC[C@H](NC(C)=O)C(=O)N[C@@H](CC(=O)O)C(=O)N[C@H](C(=O)N[C@@H](CC(N)=O)C(=O)N[C@@]1(C)CCCC=CCCC[C@@](C)(C(=O)N[C@@H](CC(C)C)C(=O)N[C@@H](CCCCN)C(=O)N[C@@H](C)C(=O)NC(C)(C)C(=O)N[C@@H](C)C(=O)N[C@@H](CCC(N)=O)C(N)=O)NC(=O)[C@H](CC(C)C)NC(=O)[C@H](CC(C)C)NC(=O)[C@H]([C@@H](C)O)NC1=O)C(C)C` [SP-1] (Ac-[Nle]DVN[S5]TLL[S5]LKA[Aib]AQ-NH2; staple 5-9): the EC50 is greater than 50 µM in the data set with H1N1 California/07/2009 [1], 25 to 50 µM with H1N1 California/07/2009 [2] (setting [5]), 25 to 50 µM with H3N2 Perth/16/2009 [3] and 25 to 50 µM in the data set on H3N2 Perth/16/2009 [4]. Further, the CC50 in “in vitro” (setting [6]), in “in vitro” (setting [7]), in the data set “in vitro” (setting [8]) and in the data set “in vitro” (setting [9]) was greater than 100 µM throughout.

Consider `CCCC[C@H](NC(C)=O)C(=O)N[C@@H](CC(=O)O)C(=O)N[C@H](C(=O)N[C@@H](CC(N)=O)C(=O)N[C@@]1(C)CCCC=CCCC[C@@](C)(C(=O)N[C@@H](CC(C)C)C(=O)N[C@@H](C)C(=O)N[C@H](C(=O)N[C@@H](CCC(N)=O)C(=O)NC(C)(C)C(=O)N[C@@H](CCC(N)=O)C(=O)N[C@@H](C)C(=O)N[C@@H](C)C(N)=O)C(C)C)NC(=O)[C@H](CC(C)C)NC(=O)[C@H](CC(C)C)NC(=O)[C@H]([C@@H](C)O)NC1=O)C(C)C` [SP-19] (Ac-[Nle]DVN[S5]TLL[S5]LAVQ[Aib]QAA-NH2; staple 5-9), for which the EC50 in the data set on H1N1 California/07/2009 [1], in the data set with H1N1 California/07/2009 [2] (setting [5]), in the data set with H3N2 Perth/16/2009 [3] and in the data set with H3N2 Perth/16/2009 [4] was 1.5 to 10 µM in each case. Also, the CC50 in the data set “in vitro” (setting [6]) was greater than 100 µM; in the data set “in vitro” (setting [7]), greater than 100 µM; in the data set “in vitro” (CC50, run with Influenza A H1N1 California/07/2009, Neutral Red), greater than 100 µM; in “in vitro” (CC50, run with Influenza A H1N1 California/07/2009, Visual) it was greater than 100 µM; in “in vitro” (CC50, run with Influenza A H3N2 Perth/16/2006 (so in the source), Neutral Red), greater than 100 µM; in “in vitro” (CC50, run with Influenza A H3N2 Perth/16/2006 (so in the source), Visual), greater than 100 µM.

As to `CCCC[C@H](NC(C)=O)C(=O)N[C@@H](CC(=O)O)C(=O)N[C@H](C(=O)N[C@@H](CC(N)=O)C(=O)N[C@@]1(C)CCCC=CCCC[C@@](C)(C(=O)N[C@@H](CC(C)C)C(=O)N[C@@H](CCCCN)C(=O)N[C@H](C(=O)N2CCC[C@H]2C(=O)NC(C)(C)C(=O)N[C@@H](CCC(N)=O)C(N)=O)C(C)C)NC(=O)[C@H](CC(C)C)NC(=O)[C@H](CC(C)C)NC(=O)[C@H]([C@@H](C)O)NC1=O)C(C)C` [SP-3] (Ac-[Nle]DVN[S5]TLL[S5]LKVP[Aib]Q-NH2; staple 5-9), the EC50 in the data set with H1N1 California/07/2009 [1] is greater than 50 µM; with H1N1 California/07/2009 [2] (read-out: EC50) it was > 100 µM and 73 µM; with H1N1 California/07/2009 [2] (setting [5]), greater than 50 µM; in the data set with H3N2 Perth/16/2009 [3] it was greater than 50 µM; with H3N2 Perth/16/2009 [4] it was 25 to 50 µM. Besides, the CC50 in “in vitro” (setting [6]), in the data set “in vitro” (setting [7]), in the data set “in vitro” (setting [8]) and in “in vitro” (setting [9]) was greater than 100 µM each time.

On to `CCCC[C@H](NC(=O)CCNC(=O)c1ccc2c(c1)C(=O)OC21c2ccc(O)cc2Oc2cc(O)ccc21)C(=O)N[C@@H](CC(=O)O)C(=O)N[C@H](C(=O)N[C@@H](CC(N)=O)C(=O)N[C@@]1(C)CCCC=CCCC[C@@](C)(C(=O)N[C@@H](CC(C)C)C(=O)N[C@@H](C)C(=O)N[C@H](C(=O)NC(C)(C)C(=O)N[C@@H](C)C(=O)N[C@@H](CCC(N)=O)C(N)=O)C(C)C)NC(=O)[C@H](CC(C)C)NC(=O)[C@H](CC(C)C)NC(=O)[C@H]([C@@H](C)O)NC1=O)C(C)C` [SP-5] ({5FAM-βAla}-[Nle]DVN[S5]TLL[S5]LAV[Aib]AQ-NH2; staple 5-9), for which the CC50 in the data set “in vitro” (setting [6]), in the data set “in vitro” (setting [7]), in “in vitro” (setting [8]) and in the data set “in vitro” (setting [9]) was greater than 100 µM each time.
